The values below come from PMC7461116, “Synthesis, Anticonvulsant and Antinociceptive Activity of New Hybrid Compounds: Derivatives of 3-(3-Methylthiophen-2-yl)-pyrrolidine-2,5-dione” (International Journal of Molecular Sciences, 2020).

Counter-ions that a name gives are not always drawn.

In data set [1] the test system is motor impairment on rotarod. The experiment in a line: Rotarod test (acute neurotoxicity, NT). The format is in vivo. The conditions noted are these: ip, 100 mg/kg, 0.5 h. The procedure:
In this test mice were trained to balance on an accelerating rotarod that rotated at 10 rotations per minute (Rotarod apparatus, May Commat RR0711, Turkey; rod diameter: 3 cm). During the training session, the animals were placed on a rotating rod for 3 min with an unlimited number of trials. Proper experiment was conducted 24 h after the training trial. On the test day, trained mice were intraperitoneally pretreated with the test compound at a dose of 100 mg/kg and just before the MES test were tested on the rotarod. Neurotoxicity was indicated by the inability of the animal to maintain equilibration on the rod for 1 min. […] Each group consisted of six animals.

For data set [2], the system named is maximal electroshock seizures. The experiment in a line: Maximal electroshock seizure (MES) test. The conditions noted are these: Mus musculus; mice, ip, 100 mg/kg, 0.5 h; read-out: MES: number of mice protected/number of mice tested (converted). The format is in vivo, mice. The procedure:
The MES test was performed as previously described. Stimuli (25 mA, 0.2 s, 50 Hz) were generated by a constant current stimulator (Rodent shocker, Type 221, Hugo Sachs Elektronik, Germany) and delivered with the use of auricular electrodes. During the stimulation, each mouse was restrained manually, and immediately after the stimulation gently released for observation. The endpoint was the tonic extension of the hind limbs. Mice not displaying hindlimb tonic extension were considered to be protected from seizure. The initial anticonvulsant screening of the tested compounds was performed at a fixed dose of 100 mg/kg (four mice per group). […] To evaluate the ED50, at least three groups of animals were injected with various doses of tested compounds. Each group consisted of six animals.

Data set [3] deals with 6 Hz psychomotor seizures. The experiment in a line: 6 Hz (32 mA) psychomotor seizure test. The format is in vivo, mice. The note with it: Mus musculus, 32 mA; for responders at 100 mg/kg: mice, ip, 0.5 h, read-out: 6 Hz: number of mice protected/number of mice tested (converted). An excerpt: Psychomotor seizures were induced via corneal stimulation (6 Hz, 32 mA, 0.2 ms rectangular pulse width, 3 s duration) using a constant-current device (ECT Unit 57800, Ugo Basile, Italy). A drop of 1% solution of lidocaine hydrochloride was applied to the mouse corneas before stimulation to provide local anesthesia and ensure optimal current conductivity. After the electrical stimulation, mice were gently released and observed for the presence or absence of seizure activity, being characterized by immobility associated with rearing, forelimb clonus, twitching of the vibrissae, stun, and Straub-tail. Lack of the above symptoms or their cessation within 10 s from the stimulation was considered as absence of seizure activity. The initial anticonvulsant screening of the tested compounds was performed at a fixed dose of 100 mg/kg (four mice per group). Then ED50 was calculated for active compounds as described above.

For data set [4], the system named is PTZ-induced clonic seizures. The experiment in a line: Subcutaneous pentylenetetrazole (scPTZ) seizure test. The format is in vivo. The note with it: mice, 100 mg/kg. The procedure: Clonic convulsions were induced by the subcutaneous (sc) administration of PTZ at a dose of 100 mg/kg. After PTZ injection, the mice were placed separately and observed during the next 30 min for the occurrence of clonic seizures. Clonic seizures were defined as clonus of the whole body lasting more than 3 s, with an accompanying loss of righting reflex. The latency to first clonus, the number of seizure episodes, and mortality rate were noted and compared with vehicle-treated and drug-treated groups. The absence of clonic convulsions within the observed time period was interpreted as the compound’s ability to protect against PTZ-induced seizures.

Data set [5] deals with latency time to pain reaction. The experiment in a line: Hot plate test. The format is in vivo. The conditions noted are these: mice, 5 mg/kg, p < 0.001. The procedure:
The hot plate test was carried out based on the Eddy and Leimbach (1953) method. In this test, the apparatus was equipped with an electrically heated surface with a temperature controller that maintains surface temperature to a set point. Herein, the temperature was set at 55 °C. The animals were treated ip either with the test compounds, or vehicle 30 min before placing the animal on a hot plate apparatus. Latency time to pain reaction, i.e., the time until the animal licked its back paws or jumped was recorded by means of the stopwatch.
For orientation: In hot-plate and tail-flick tests a longer latency is read as antinociception.

The term melting point denotes the temperature, or range, at which the solid turns liquid. `Cc1ccsc1C1CC(=O)N(CCCN2CCN(c3ccc(F)cc3)CC2)C1=O` (racemic) (as salt: hydrochloride) [Compound 5, (R,S)-1-(3-(4-(4-Fluorophenyl)piperazin-1-yl)propyl)-3-(3-methylthiophen-2-yl)pyrrolidine-2,5-dione hydrochloride] registered a melting point of 160 to 162 °C.
Same read-out and setting: for `Cc1ccsc1C1CC(=O)N(CCCN2CCN(c3cccc(C(F)(F)F)c3)CC2)C1=O` (racemic) (as salt: hydrochloride) [Compound 6, (R,S)-3-(3-Methylthiophen-2-yl)-1-(3-(4-(3-(trifluoromethyl)phenyl)piperazin-1-yl)propyl)pyrrolidine-2,5-dione hydrochloride] the value was 183 to 185 °C.
Regarding `Cc1ccsc1C1CC(=O)N(CCCN2CCN(c3cccc(Cl)c3)CC2)C1=O` (racemic) (as salt: hydrochloride) [Compound 7, (R,S)-1-(3-(4-(3-Chlorophenyl)piperazin-1-yl)propyl)-3-(3-methylthiophen-2-yl)pyrrolidine-2,5-dione hydrochloride], the melting point was in the range of 181.5 to 183.5 °C.
On the same count and under the same terms, the result for `Cc1ccsc1C1CC(=O)N(CCCN2CCN(c3ccc(Cl)cc3)CC2)C1=O` (racemic) (as salt: hydrochloride) [Compound 8, (R,S)-1-(3-(4-(4-Chlorophenyl)piperazin-1-yl)propyl)-3-(3-methylthiophen-2-yl)pyrrolidine-2,5-dione hydrochloride] reads 68 to 70 °C; that for `Cc1ccsc1C1CC(=O)N(CCCN2CCN(c3ccc(Cl)c(Cl)c3)CC2)C1=O` (racemic) (as salt: hydrochloride) [Compound 9, (R,S)-1-(3-(4-(3,4-Dichlorophenyl)piperazin-1-yl)propyl)-3-(3-methylthiophen-2-yl)pyrrolidine-2,5-dione hydrochloride], 101 to 103 °C.
For the compound `Cc1ccsc1C1CC(=O)N(CCCN2CCN(c3ccc(F)cc3)CC2)C1=O` (racemic) [Compound 5, (R,S)-1-(3-(4-(4-Fluorophenyl)piperazin-1-yl)propyl)-3-(3-methylthiophen-2-yl)pyrrolidine-2,5-dione hydrochloride], in data set [1], the “NT: number of mice with motor impairment/number of mice tested” value is 4/4. The responders at 100 mg/kg in data set [2] and in data set [3] was 0% throughout.
With `Cc1ccsc1C1CC(=O)N(CCCN2CCN(c3cccc(Cl)c3)CC2)C1=O` (racemic) [Compound 7, (R,S)-1-(3-(4-(3-Chlorophenyl)piperazin-1-yl)propyl)-3-(3-methylthiophen-2-yl)pyrrolidine-2,5-dione hydrochloride], the “NT: number of mice with motor impairment/number of mice tested” value in data set [1] is reported as 2/4. Also, the responders at 100 mg/kg in data set [2] and in data set [3] was 0% throughout.
In the case of `Cc1ccsc1C1CC(=O)N(CCCN2CCN(c3ccc(Cl)cc3)CC2)C1=O` (racemic) [Compound 8, (R,S)-1-(3-(4-(4-Chlorophenyl)piperazin-1-yl)propyl)-3-(3-methylthiophen-2-yl)pyrrolidine-2,5-dione hydrochloride], the “NT: number of mice with motor impairment/number of mice tested” value in data set [1] is on record as 0/4. For the same compound, the responders at 100 mg/kg in data set [2] and in data set [3] was 25% throughout.
The compound `Cc1ccsc1C1CC(=O)N(CC(=O)N2CCOCC2)C1=O` (racemic) [Compound 10, (R,S)-3-(3-Methylthiophen-2-yl)-1-(2-morpholino-2-oxoethyl)pyrrolidine-2,5-dione] displayed a melting point of 142 to 144 °C. For the same compound, the “NT: number of mice with motor impairment/number of mice tested” value in data set [1] is recorded as 0/4. Also, in data set [2], the responders at 100 mg/kg is 0%. Moreover, the responders at 100 mg/kg in data set [3] was 25%.
As to `Cc1ccsc1C1CC(=O)N(CC(=O)N2CCN(c3ccc(F)cc3)CC2)C1=O` (racemic) [Compound 11, (R,S)-1-(2-(4-(4-Fluorophenyl)piperazin-1-yl)-2-oxoethyl)-3-(3-methylthiophen-2-yl)pyrrolidine-2,5-dione], the melting point was in the range of 165 to 166 °C. Further, the “NT: number of mice with motor impairment/number of mice tested” value in data set [1] is 0/4. For the same compound, the responders at 100 mg/kg in data set [2] is 0%. Besides, the responders at 100 mg/kg in data set [3] was 0%.
Compound `Cc1ccsc1C1CC(=O)N(CC(=O)N2CCN(c3cccc(C(F)(F)F)c3)CC2)C1=O` (racemic) [Compound 12, (R,S)-3-(3-Methylthiophen-2-yl)-1-(2-oxo-2-(4-(3-(trifluoromethyl)phenyl)piperazin-1-yl)ethyl)pyrrolidine-2,5-dione] gave a melting point of 135 to 137 °C. Besides, in data set [1], the “NT: number of mice with motor impairment/number of mice tested” value is recorded as 1/4. Also, the responders at 100 mg/kg in data set [2] is 0%. Further, the responders at 100 mg/kg in data set [3] was 0%.
In turn, `Cc1ccsc1C1CC(=O)N(CC(=O)N2CCN(c3ccccc3Cl)CC2)C1=O` (racemic) [Compound 13, (R,S)-1-(2-(4-(2-Chlorophenyl)piperazin-1-yl)-2-oxoethyl)-3-(3-methylthiophen-2-yl)pyrrolidine-2,5-dione] displayed a melting point of 141 to 143 °C. Moreover, in data set [1], the “NT: number of mice with motor impairment/number of mice tested” value is recorded as 0/4. Besides, in data set [2], the responders at 100 mg/kg was 0%. The responders at 100 mg/kg in data set [3] was 25%.
As for `Cc1ccsc1C1CC(=O)N(CC(=O)N2CCN(c3ccc(Cl)cc3)CC2)C1=O` (racemic) [Compound 15, (R,S)-1-(2-(4-(4-Chlorophenyl)piperazin-1-yl)-2-oxoethyl)-3-(3-methylthiophen-2-yl)pyrrolidine-2,5-dione], the melting point was 179 to 181 °C. Also, in data set [1], the “NT: number of mice with motor impairment/number of mice tested” value is on record as 0/4. The responders at 100 mg/kg in data set [2] was 0%. Moreover, the responders at 100 mg/kg in data set [3] is 25%.
The compound `Cc1ccsc1C1CC(=O)N(CC(=O)N2CCN(c3cccc(Cl)c3Cl)CC2)C1=O` (racemic) [Compound 16, (R,S)-1-(2-(4-(2,3-Dichlorophenyl)piperazin-1-yl)-2-oxoethyl)-3-(3-methylthiophen-2-yl)pyrrolidine-2,5-dione] yielded a melting point of 112 to 113.5 °C. Moreover, in data set [1], the “NT: number of mice with motor impairment/number of mice tested” value is given as 0/4. Further, in data set [2], the responders at 100 mg/kg is 0%. Moreover, the responders at 100 mg/kg in data set [3] was 0%.
As a reminder, the ED50 is the dose at which the effect has come halfway, by size or by number of responders. Higher therefore signals weaker potency. For the compound `Cc1ccsc1C1CC(=O)N(CC(=O)N2CCN(c3ccc(Cl)c(Cl)c3)CC2)C1=O` (racemic) [Compound 17, (R,S)-1-(2-(4-(3,4-Dichlorophenyl)piperazin-1-yl)-2-oxoethyl)-3-(3-methylthiophen-2-yl)pyrrolidine-2,5-dione], the “NT: number of mice with motor impairment/number of mice tested” value in data set [1] is recorded as 0/4. In addition, the responders at 100 mg/kg in data set [2] is 0%; in data set [3], 50%. Moreover, in data set [4], the “scPTZ: effect in words” value is recorded as “no significant effect”. The ED50 in data set [3] (mice ip, 95% confidence limit in brackets) is greater than 150 mg/kg.
`CN1CC[C@]23c4c5ccc(O)c4O[C@H]2[C@@H](O)C=C[C@H]3[C@H]1C5` [morphine, reference compound]: the “Hot plate: prolongation of latency time to pain reaction” value in data set [5] is on record as 74%.
